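Protocol summary: plate cells (96-well), add compound at 5 concentrations, incubate 48 h, interpolate endpoints linearly. GI50 marks 50% less growth.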 The source made the active and inactive calls. Cut-off read from the data, not from the text of the source: active = GI50 up to about 1.1 µM and inactive = higher.
What was measured:
Assay in all cases: NCI anticancer screen, dose series, 48 h
DMS-273 = system: DMS-273
HL-60 = system: HL-60
SN12C = system: SN12C
UACC-62 = system: UACC-62
SF-268 = system: SF-268
SNB-75 = system: SNB-75
HT-29 = system: HT-29
TK-10 = system: TK-10
NCI-H522 = system: NCI-H522
HCT-116 = system: HCT-116
M14 = system: M14
SNB-78 = system: SNB-78
SK-MEL-28 = system: SK-MEL-28
NCI-H23 = system: NCI-H23
KM-20L2 = system: KM-20L2
SF-295 = system: SF-295
HOP-92 = system: HOP-92
COLO 205 = system: COLO 205
OVCAR-8 = system: OVCAR-8
SNB-19 = system: SNB-19
NCI-H460 = system: NCI-H460
OVCAR-5 = system: OVCAR-5
RPMI-8226 = system: RPMI-8226
MOLT-4 = system: MOLT-4
786-0 = system: 786-0
LXFL 529 = system: LXFL 529
ACHN = system: ACHN
SK-MEL-5 = system: SK-MEL-5
DMS-114 = system: DMS-114
NCI-H226 = system: NCI-H226
KM12 = system: KM12
CAKI-1 = system: CAKI-1
HOP-18 = system: HOP-18
RXF 393 = system: RXF 393
CCRF-CEM = system: CCRF-CEM
DLD-1 = system: DLD-1
OVCAR-4 = system: OVCAR-4
HOP-62 = system: HOP-62
Malme-3M = system: Malme-3M
LOX IMVI = system: LOX IMVI
HCT-15 = system: HCT-15
UACC-257 = system: UACC-257
UO-31 = system: UO-31
XF498 = system: XF498
SW-620 = system: SW-620
SK-MEL-2 = system: SK-MEL-2
SF-539 = system: SF-539
U-251 = system: U-251
IGROV-1 = system: IGROV-1
K562 = system: K562
OVCAR-3 = system: OVCAR-3
SK-OV-3 = system: SK-OV-3
A549 = system: A549
SR = system: SR
EKVX = system: EKVX
HCC 2998 = system: HCC 2998
A498 = system: A498

O=C(NCCCN1CCN(CCCNC(=O)Nc2cc(Cl)ccc2Cl)CC1)Nc1cc(Cl)ccc1Cl was tested, and the GI50 (DMS-273) was 22.3 µM (inactive), the GI50 (HL-60) was 34.4 µM (inactive) and the GI50 (SN12C) was 83 µM (inactive). For the same compound, the GI50 (UACC-62) was 64.7 µM (inactive), the GI50 (SF-268) was 87.3 µM (inactive) and the GI50 (SNB-75) was 15 µM (inactive). The GI50 (HT-29) was 51.4 µM (inactive), the GI50 (TK-10) was > 100 µM (inactive) and the GI50 (NCI-H522) was 38.6 µM (inactive). The GI50 (HCT-116) was 79.3 µM (inactive), the GI50 (M14) was 27.4 µM (inactive) and the GI50 (SNB-78) was 90.6 µM (inactive). For the same compound, the GI50 (SK-MEL-28) was 60.3 µM (inactive), the GI50 (NCI-H23) was 87.7 µM (inactive) and the GI50 (KM-20L2) was 28.4 µM (inactive). For the same compound, the GI50 (SF-295) was 49.3 µM (inactive), the GI50 (HOP-92) was 50.6 µM (inactive) and the GI50 (COLO 205) was 45.5 µM (inactive). For the same compound, the GI50 (OVCAR-8) was 61.8 µM (inactive), the GI50 (SNB-19) was 46.3 µM (inactive) and the GI50 (NCI-H460) was > 100 µM (inactive). The GI50 (OVCAR-5) was > 100 µM (inactive), the GI50 (RPMI-8226) was 80 µM (inactive) and the GI50 (MOLT-4) was > 100 µM (inactive). The GI50 (786-0) was 32.5 µM (inactive), the GI50 (LXFL 529) was 51.2 µM (inactive) and the GI50 (ACHN) was > 100 µM (inactive). For the same compound, the GI50 (SK-MEL-5) was 39.7 µM (inactive), the GI50 (DMS-114) was 38.5 µM (inactive) and the GI50 (NCI-H226) was > 100 µM (inactive). The GI50 (KM12) was > 100 µM (inactive), the GI50 (CAKI-1) was > 100 µM (inactive) and the GI50 (HOP-18) was > 100 µM (inactive). For the same compound, the GI50 (RXF 393) was > 100 µM (inactive), the GI50 (CCRF-CEM) was > 100 µM (inactive) and the GI50 (DLD-1) was > 100 µM (inactive). The GI50 (OVCAR-4) was 34 µM (inactive), the GI50 (HOP-62) was 52.6 µM (inactive) and the GI50 (Malme-3M) was 24.3 µM (inactive). The GI50 (LOX IMVI) was 37 µM (inactive), the GI50 (HCT-15) was 65.3 µM and the GI50 (UACC-257) was 16.5 µM (inactive). The GI50 (UO-31) was > 100 µM (inactive), the GI50 (XF498) was > 100 µM (inactive) and the GI50 (SW-620) was > 100 µM (inactive). For the same compound, the GI50 (SK-MEL-2) was > 100 µM (inactive), the GI50 (SF-539) was 44.5 µM (inactive) and the GI50 (U-251) was 50.7 µM (inactive). For the same compound, the GI50 (IGROV-1) was > 100 µM (inactive), the GI50 (K562) was 35.5 µM (inactive) and the GI50 (OVCAR-3) was > 100 µM (inactive). The GI50 (SK-OV-3) was 97.9 µM (inactive) and the GI50 (A549) was > 100 µM (inactive).

In the case of CC(N)C(C)c1ccccc1 (stereo not given), the GI50 (DMS-273) is reported as > 100 µM (inactive), the GI50 (HL-60) is reported as > 100 µM (inactive) and the GI50 (SN12C) is reported as > 100 µM (inactive). The GI50 (UACC-62) was > 100 µM (inactive), the GI50 (SF-268) was > 100 µM (inactive) and the GI50 (SNB-75) was > 100 µM (inactive). For the same compound, the GI50 (HT-29) was > 100 µM (inactive), the GI50 (TK-10) was > 100 µM (inactive) and the GI50 (NCI-H522) was > 100 µM (inactive). For the same compound, the GI50 (HCT-116) was > 100 µM (inactive), the GI50 (M14) was > 100 µM (inactive) and the GI50 (SNB-78) was > 100 µM (inactive). The GI50 (SK-MEL-28) was > 100 µM (inactive), the GI50 (NCI-H23) was > 100 µM (inactive) and the GI50 (KM-20L2) was > 100 µM (inactive). The GI50 (SF-295) was > 100 µM (inactive), the GI50 (HOP-92) was > 100 µM (inactive) and the GI50 (COLO 205) was > 100 µM (inactive). For the same compound, the GI50 (OVCAR-8) was > 100 µM (inactive), the GI50 (SNB-19) was > 100 µM (inactive) and the GI50 (NCI-H460) was > 100 µM (inactive). The GI50 (SR) was > 100 µM (inactive), the GI50 (OVCAR-5) was > 100 µM (inactive) and the GI50 (RPMI-8226) was > 100 µM (inactive). For the same compound, the GI50 (MOLT-4) was > 100 µM (inactive), the GI50 (EKVX) was > 100 µM (inactive) and the GI50 (786-0) was > 100 µM (inactive). The GI50 (LXFL 529) was > 100 µM (inactive), the GI50 (HCC 2998) was > 100 µM (inactive) and the GI50 (A498) was > 100 µM (inactive). The GI50 (ACHN) was > 100 µM (inactive), the GI50 (SK-MEL-5) was > 100 µM (inactive) and the GI50 (DMS-114) was > 100 µM (inactive). For the same compound, the GI50 (NCI-H226) was > 100 µM (inactive), the GI50 (KM12) was > 100 µM (inactive) and the GI50 (CAKI-1) was > 100 µM (inactive). For the same compound, the GI50 (HOP-18) was > 100 µM (inactive), the GI50 (RXF 393) was > 100 µM (inactive) and the GI50 (CCRF-CEM) was > 100 µM (inactive). For the same compound, the GI50 (DLD-1) was > 100 µM (inactive), the GI50 (OVCAR-4) was > 100 µM (inactive) and the GI50 (HOP-62) was > 100 µM (inactive). For the same compound, the GI50 (Malme-3M) was > 100 µM (inactive), the GI50 (LOX IMVI) was > 100 µM (inactive) and the GI50 (HCT-15) was over 100 µM. The GI50 (UACC-257) was > 100 µM (inactive), the GI50 (UO-31) was > 100 µM (inactive) and the GI50 (XF498) was > 100 µM (inactive). For the same compound, the GI50 (SW-620) was > 100 µM (inactive), the GI50 (SK-MEL-2) was > 100 µM (inactive) and the GI50 (SF-539) was > 100 µM (inactive). For the same compound, the GI50 (U-251) was > 100 µM (inactive), the GI50 (IGROV-1) was > 100 µM (inactive) and the GI50 (K562) was > 100 µM (inactive). The GI50 (OVCAR-3) was > 100 µM (inactive), the GI50 (SK-OV-3) was > 100 µM (inactive) and the GI50 (A549) was > 100 µM (inactive).
